Source: patent US8598159B2, “Therapeutic pyrazoloquinoline derivatives” (Dart Neuroscience (Cayman) Ltd., priority 2007, dated 2013)

Target: GABAA central benzodiazepine receptor
Assay: Benzodiazepine binding assay ((3H)-flunitrazepam displacement)
Conditions: read-out: BZ binding assay (IC50); rat whole brain (except cerebellum), 1 nM (3H)-flunitrazepam, 60 minutes at 25° C.; 3-concentration dose response curve

IC50 [nM] | Compound
< 1000 | CC1CN(c2ccc3[nH]cc4c(=O)n(-c5ccccc5)nc-4c3c2)CC(C)O1 (stereo not drawn) [19h, 8-(2,6-Dimethylmorpholin-4-yl)-2-phenyl-2,5-dihydro-pyrazolo[4,3-c]quinolin-3-one]
< 1000 | CN(C)C1CCN(c2cc3[nH]cc4c(=O)n(-c5ccccc5)nc-4c3cc2F)CC1 [28i, 7-(4-Dimethylaminopiperidin-1-yl)-8-fluoro-2-phenyl-2,5-dihydro-pyrazolo[4,3-c]quinolin-3-one]
< 1000 | O=c1c2c[nH]c3cc(N4CCN(C5CCCC5)CC4)c(F)cc3c-2nn1-c1ccccc1 [28j, 7-(4-Cyclopentylpiperazin-1-yl)-8-fluoro-2-phenyl-2,5-dihydro-pyrazolo[4,3-c]quinolin-3-one]
< 1000 | O=c1c2c[nH]c3cc(N4CCC(O)CC4)c(F)cc3c-2nn1-c1ccccc1 [28k, 8-Fluoro-7-(4-hydroxypiperidin-1-yl)-2-phenyl-2,5-dihydro-pyrazolo[4,3-c]quinolin-3-one]
< 1000 | O=c1c2c[nH]c3cc(N4CCCNCC4)c(F)cc3c-2nn1-c1ccccc1 [28l, 8-Fluoro-7-(perhydro[1,4]-diazepin-1-yl)-2-phenyl-2,5-dihydro-pyrazolo[4,3-c]quinolin-3-one]
< 1000 | CN1CCCN(c2cc3[nH]cc4c(=O)n(-c5ccccc5)nc-4c3cc2F)CC1 [28m, 8-Fluoro-7-(4-methylperhydro[1,4]-diazepin-1-yl)-2-phenyl-2,5-dihydro-pyrazolo[4,3-c]quinolin-3-one]
> 1000 | O=c1c2c[nH]c3cc(N4CCNCC4)c(F)cc3c-2nn1-c1ccccc1F [28n, 8-Fluoro-2-(2-fluorophenyl)-7-(piperazin-1-yl)-2,5-dihydro-pyrazolo[4,3-c]quinolin-3-one]
< 1000 | CN1CCN(c2cc3[nH]cc4c(=O)n(-c5ccccc5F)nc-4c3cc2F)CC1 [28o, 8-fluoro-2-(2-fluorophenyl)-7-(4-methylpiperazin-1-yl)-2,5-dihydro-pyrazolo[4,3-c]quinolin-3-one]
> 1000 | CN1CCN(c2cc3[nH]cc4c(=O)n(-c5ccsc5)nc-4c3cc2F)CC1 [28q, 8-fluoro-7-(4-methylpiperazin-1-yl)-2-(thiophen-3-yl)-2,5-dihydro-pyrazolo[4,3-c]quinolin-3-one]
< 1000 | O=c1c2c[nH]c3cc(N4CCOCC4)c(F)cc3c-2nn1-c1ccsc1 [28r, 8-fluoro-7-(morpholin-4-yl)-2-(thiophen-3-yl)-2,5-dihydro-pyrazolo[4,3-c]quinolin-3-one]
> 1000 | CN1CCN(c2ccc3c4nn(-c5ccccc5)c(=O)c-4c[nH]c3c2F)CC1 [48b, 6-Fluoro-7-(4-methyl-piperazin-1-yl)-2-phenyl-2,5-dihydro-pyrazolo [4,3-c]quinolin-3-one]
< 1000 | O=c1c2c[nH]c3c(F)c(N4CCOCC4)ccc3c-2nn1-c1ccccc1 [48c, 6-Fluoro-7-(morpholin-4-yl)-2-phenyl-2,5-dihydro-pyrazolo[4,3-c]quinolin-3-one]
< 1000 | O=c1c2c[nH]c3c(F)c(N4CCCNCC4)ccc3c-2nn1-c1ccccc1 [48d, 6-Fluoro-7-(perhydro[1,4]-diazepine-1-yl)-2-phenyl-2,5-dihydro-pyrazolo[4,3-c]quinolin-3-one]
< 1000 | CC(C)N1CCN(c2ccc3c4nn(-c5ccccc5)c(=O)c-4c[nH]c3c2F)CC1 [48e, 6-Fluoro-7-(4-iso-propylpiperazin-1-yl)-2-phenyl-2,5-dihydro-pyrazolo [4,3-c]quinolin-3-one]
< 1000 | CC(C)N1CCN(c2ccc3c4nn(-c5ccccn5)c(=O)c-4c[nH]c3c2F)CC1 [48f, 6-Fluoro-7-(4-iso-propylpiperazin-1-yl)-2-(2′-pyridyl)-2,5-dihydro-pyrazolo[4,3-c]quinolin-3-one]
< 1000 | O=c1c2c[nH]c3c(N4CCNCC4)cc(C(F)(F)F)cc3c-2nn1-c1ccccc1 [52a, 2-Phenyl-6-piperazin-1-yl-8-trifluoromethyl-2,5-dihydro-pyrazolo[4,3-c]quinolin-3-one]
< 1000 | CN1CCN(c2cc(C(F)(F)F)cc3c4nn(-c5ccccc5)c(=O)c-4c[nH]c23)CC1 [52b, 2-Phenyl-6-(4-methylpiperazin-1-yl)-8-trifluoromethyl-2,5-dihydro-pyrazolo[4,3-c]quinolin-3-one]
< 1000 | O=c1c2c[nH]c3c(N4CCCNCC4)cc(C(F)(F)F)cc3c-2nn1-c1ccccc1 [52c, 2-Phenyl-6-(perhydro[1,4]-diazepine-1-yl)-8-trifluoromethyl-2,5-dihydro-pyrazolo[4,3-c]quinolin-3-one]
> 1000 | Cc1[nH]c2cc(N3CCNCC3)c(F)cc2c2nn(-c3ccccc3)c(=O)c1-2 [63a, 8-Fluoro-4-methyl-2-phenyl-7-piperazin-1-yl-2,5-dihydro-pyrazolo[4,3-c]quinolin-3-one]
> 1000 | Cc1[nH]c2cc(N3CCOCC3)c(F)cc2c2nn(-c3ccccc3)c(=O)c1-2 [63b, 8-Fluoro-4-methyl-7-morpholin-4-yl-2-phenyl-2,5-dihydro-pyrazolo [4,3-c]quinolin-3-one]
< 1000 | O=c1c2c[nH]c3cc(N4CCOCC4)c(F)c(N4CCOCC4)c3c-2nn1-c1ccccc1 [compound 55, 7,9-Bis(morpholin-4-yl)-8-fluoro-2-phenyl-2,5-dihydro-pyrazolo[4,3-c]quinolin-3-one]

Compound | IC50 [nM]
2-Phenyl-6-(4-iso-propylpiperazin-1-yl)-8-trifluoromethyl-2,5-dihydro-pyrazolo[4,3-c]quinolin-3-one [52d] | < 1000
O=c1c2c[nH]c3cc(N4CCNCC4)c(F)cc3c-2nn1-c1ccccc1 [28a, 8-Fluoro-2-phenyl-7-piperazin-1-yl-2,5-dihydro-pyrazolo[4,3-c]quinolin-3-one] | < 1000
O=c1c2c[nH]c3c(F)c(N4CCNCC4)ccc3c-2nn1-c1ccccc1 [48a, 6-Fluoro-2-phenyl-7-piperazin-1-yl-2,5-dihydro-pyrazolo[4,3-c]quinolin-3-one] | > 1000
